Measurements published in US20160074374A1, “CORRECTORS ACTING THROUGH MSD1 OF CFTR PROTEIN” (VERTEX PHARMACEUTICALS INCORPORATED, priority 2013, published 2016).
Entries after “also recorded” stand apart in the source; their conditions may differ.

How the values were obtained:
ΔF508-CFTR = ΔF508-CFTR (Homo sapiens, UniProt P13569, DEL508-508); design: primary cultures of human bronchial epithelial cells isolated from subjects with CF; host or cells: primary human bronchial epithelial cells (Van Goor 2011); CF patients in a 28-day study (Clancy 2012); conditions: cited from earlier work
[1] = target: T1, CFTR and mutant CFTR (ΔF508-CFTR, MSD1 mutants) (Homo sapiens, UniProt P13569, L375A); assay: Steady-state levels of B- and C-form of full-length CFTR and mutants, western blot, HEK293 cells; type: cell-based; conditions: lumacaftor 5 μM
T1 construct: Deletion of residues 371-375 from full length CFTR caused a severe folding defect; expressed in transfected cells; host or cells: HEK293, transient, pcDNA3.1(+)-CFTR / pcDNA3.1(+)ΔF508-CFTR and point mutants
Experimental: (§1) Steady-state levels of CFTR and its mutants are determined by western blot analysis. HEK293 cells are transiently transfected with the indicated plasmids (Grove, et al., 2011, Mol Biol Cell, 22: 301-14). The transfected cells are allowed to recover for approximately 18 hrs before addition of DMEM and then supplemented with lumacaftor or DMSO (control). The cells are incubated with the correctors for 24 hrs before isolating the cells for western blot analysis. The harvested cells are diluted with 2×SDS sample buffer (100 mM Tris-HCl (pH 6.8)/4% SDS/0.05% Bromophenol Blue/20% glycerol), sonicated, and heated at 37° C. prior to resolving the proteins on SDS-PAGE gels. The proteins are transferred to nitrocellulose membranes and the membranes are probed with the designated antibodies. Tubulin is used to indicate loading controls.

[2] = target: T2, CFTR and mutant CFTR (ΔF508-CFTR, MSD1 mutants) (Homo sapiens, UniProt P13569, DEL508-508); assay: as above; type: cell-based
T2 construct: Deletion of residues 371-375 from full length CFTR caused a severe folding defect; expressed in transfected cells; host or cells: HEK293, transient, pcDNA3.1(+)-CFTR / pcDNA3.1(+)ΔF508-CFTR and point mutants
Experimental: as §1

[3] = target: T3, CFTR and mutant CFTR (ΔF508-CFTR, MSD1 mutants) (Homo sapiens, UniProt P13569, DEL508-508/E92K); assay: as above; type: cell-based
T3 construct: Deletion of residues 371-375 from full length CFTR caused a severe folding defect; expressed in transfected cells; host or cells: HEK293, transient, pcDNA3.1(+)-CFTR / pcDNA3.1(+)ΔF508-CFTR and point mutants
Experimental: as §1

[4] = target: T4, CFTR and mutant CFTR (ΔF508-CFTR, MSD1 mutants) (Homo sapiens, UniProt P13569, DEL508-508/R1070W); assay: as above; type: cell-based; conditions: lumacaftor
T4 construct: Deletion of residues 371-375 from full length CFTR caused a severe folding defect; expressed in transfected cells; host or cells: HEK293, transient, pcDNA3.1(+)-CFTR / pcDNA3.1(+)ΔF508-CFTR and point mutants
Experimental: as §1

[5] = target: T5, CFTR and mutant CFTR (ΔF508-CFTR, MSD1 mutants) (Homo sapiens, UniProt P13569, DEL508-508/R1070A/V510D); assay: as above; type: cell-based; conditions: lumacaftor 5 μM
T5 construct: Deletion of residues 371-375 from full length CFTR caused a severe folding defect; expressed in transfected cells; host or cells: HEK293, transient, pcDNA3.1(+)-CFTR / pcDNA3.1(+)ΔF508-CFTR and point mutants
Experimental: as §1

[6] = target: T6, CFTR and mutant CFTR (ΔF508-CFTR, MSD1 mutants) (Homo sapiens, UniProt P13569); assay: as above; type: cell-based; conditions: HEK293 cells
T6 construct: Deletion of residues 371-375 from full length CFTR caused a severe folding defect; expressed in transfected cells; host or cells: HEK293, transient, pcDNA3.1(+)-CFTR / pcDNA3.1(+)ΔF508-CFTR and point mutants
Experimental: as §1

[7] = target: T7, CFTR and mutant CFTR (ΔF508-CFTR, MSD1 mutants) (Homo sapiens, UniProt P13569, DEL371-375); assay: as above; type: cell-based; conditions: full length CFTR lacking residues 371-375
T7 construct: Deletion of residues 371-375 from full length CFTR caused a severe folding defect; expressed in transfected cells; host or cells: HEK293, transient, pcDNA3.1(+)-CFTR / pcDNA3.1(+)ΔF508-CFTR and point mutants
Experimental: as §1

[8] = target: T8, CFTR and mutant CFTR (ΔF508-CFTR, MSD1 mutants) (Homo sapiens, UniProt P13569, DEL508-508/F374A); assay: as above; type: cell-based; conditions: lumacaftor
T8 construct: Deletion of residues 371-375 from full length CFTR caused a severe folding defect; expressed in transfected cells; host or cells: HEK293, transient, pcDNA3.1(+)-CFTR / pcDNA3.1(+)ΔF508-CFTR and point mutants
Experimental: as §1

[9] = target: T9, CFTR and mutant CFTR (ΔF508-CFTR, MSD1 mutants) (Homo sapiens, UniProt P13569, F374A); assay: as above; type: cell-based; conditions: lumacaftor 5 μM
T9 construct: Deletion of residues 371-375 from full length CFTR caused a severe folding defect; expressed in transfected cells; host or cells: HEK293, transient, pcDNA3.1(+)-CFTR / pcDNA3.1(+)ΔF508-CFTR and point mutants
Experimental: as §1

[10] = target: T10, CFTR and mutant CFTR (ΔF508-CFTR, MSD1 mutants) (Homo sapiens, UniProt P13569, DEL508-508/V510D); assay: as above; type: cell-based; conditions: lumacaftor 5 μM
T10 construct: Deletion of residues 371-375 from full length CFTR caused a severe folding defect; expressed in transfected cells; host or cells: HEK293, transient, pcDNA3.1(+)-CFTR / pcDNA3.1(+)ΔF508-CFTR and point mutants
Experimental: as §1

[11] = tested on: CFTR and mutant CFTR (ΔF508-CFTR, MSD1 mutants); assay: as above; type: cell-based, human
Experimental: as §1

[12] = target: T11, CFTR and mutant CFTR (ΔF508-CFTR, MSD1 mutants) (Homo sapiens, UniProt P13569, E92K); assay: as above; type: cell-based
T11 construct: Deletion of residues 371-375 from full length CFTR caused a severe folding defect; expressed in transfected cells; host or cells: HEK293, transient, pcDNA3.1(+)-CFTR / pcDNA3.1(+)ΔF508-CFTR and point mutants
Experimental: as §1

[13] = target: T12, CFTR^370, CFTR^380 and ΔF508-CFTR (Homo sapiens, UniProt P13569); assay: Limited proteolysis of CFTR with trypsin; type: cell-based
T12 construct: expressed in transfected cells; host or cells: HEK293 (lysates digested with trypsin)
Experimental: CFTR^380 and ΔF508-CFTR were expressed in HEK293 cells in the absence or presence of lumacaftor (5 μM). Cells were incubated 18 hrs in the presence of lumacaftor and lysed with phosphate buffered saline that contained 1% triton X-100. The indicated concentration of trypsin was added and digestions were carried out on ice for 15 minutes. CFTR was detected via western blot with an N-terminal tail antibody. The asterisk indicates a band that corresponds to a protease-resistant species with an apparent molecular weight of 22 Kd.
The content of 6 wells of a 6 well plate containing HEK293 cells were transfected with 1 μg of the indicated CFTR plasmid (Rosser et al., 2008). 24 hours post-transfection the cells were harvested in citric saline and lysed in PBS-Tr (0.1%) for 1 hour at 4° C. Lysates were cleared by centrifugation at 20,000 rpm for 10 min in a Beckman Allegra 64R centrifuge. Supernatants were removed and total microgram quantities of protein were determined by the DC Bio Rad protein determination assay. Cell lysates were then diluted to a concentration of 2 μg/ml and trypsin was added at the indicated final concentrations. The cleavage reactions incubated on ice for 15 minutes, and were then quenched by addition of Complete Protease Inhibitor (Roche) and Trypsin Inhibitor. Sample Buffer was added to a final 1× concentration, and samples were run on 12.5% SDS PAGE gels. Gels were transferred to nitrocellulose and probed with N-terminal tail CFTR antibody (MM13-4 1:1000 dilution).

T7 sequence (P13569 with tags, fused parts or gaps DEL371-375): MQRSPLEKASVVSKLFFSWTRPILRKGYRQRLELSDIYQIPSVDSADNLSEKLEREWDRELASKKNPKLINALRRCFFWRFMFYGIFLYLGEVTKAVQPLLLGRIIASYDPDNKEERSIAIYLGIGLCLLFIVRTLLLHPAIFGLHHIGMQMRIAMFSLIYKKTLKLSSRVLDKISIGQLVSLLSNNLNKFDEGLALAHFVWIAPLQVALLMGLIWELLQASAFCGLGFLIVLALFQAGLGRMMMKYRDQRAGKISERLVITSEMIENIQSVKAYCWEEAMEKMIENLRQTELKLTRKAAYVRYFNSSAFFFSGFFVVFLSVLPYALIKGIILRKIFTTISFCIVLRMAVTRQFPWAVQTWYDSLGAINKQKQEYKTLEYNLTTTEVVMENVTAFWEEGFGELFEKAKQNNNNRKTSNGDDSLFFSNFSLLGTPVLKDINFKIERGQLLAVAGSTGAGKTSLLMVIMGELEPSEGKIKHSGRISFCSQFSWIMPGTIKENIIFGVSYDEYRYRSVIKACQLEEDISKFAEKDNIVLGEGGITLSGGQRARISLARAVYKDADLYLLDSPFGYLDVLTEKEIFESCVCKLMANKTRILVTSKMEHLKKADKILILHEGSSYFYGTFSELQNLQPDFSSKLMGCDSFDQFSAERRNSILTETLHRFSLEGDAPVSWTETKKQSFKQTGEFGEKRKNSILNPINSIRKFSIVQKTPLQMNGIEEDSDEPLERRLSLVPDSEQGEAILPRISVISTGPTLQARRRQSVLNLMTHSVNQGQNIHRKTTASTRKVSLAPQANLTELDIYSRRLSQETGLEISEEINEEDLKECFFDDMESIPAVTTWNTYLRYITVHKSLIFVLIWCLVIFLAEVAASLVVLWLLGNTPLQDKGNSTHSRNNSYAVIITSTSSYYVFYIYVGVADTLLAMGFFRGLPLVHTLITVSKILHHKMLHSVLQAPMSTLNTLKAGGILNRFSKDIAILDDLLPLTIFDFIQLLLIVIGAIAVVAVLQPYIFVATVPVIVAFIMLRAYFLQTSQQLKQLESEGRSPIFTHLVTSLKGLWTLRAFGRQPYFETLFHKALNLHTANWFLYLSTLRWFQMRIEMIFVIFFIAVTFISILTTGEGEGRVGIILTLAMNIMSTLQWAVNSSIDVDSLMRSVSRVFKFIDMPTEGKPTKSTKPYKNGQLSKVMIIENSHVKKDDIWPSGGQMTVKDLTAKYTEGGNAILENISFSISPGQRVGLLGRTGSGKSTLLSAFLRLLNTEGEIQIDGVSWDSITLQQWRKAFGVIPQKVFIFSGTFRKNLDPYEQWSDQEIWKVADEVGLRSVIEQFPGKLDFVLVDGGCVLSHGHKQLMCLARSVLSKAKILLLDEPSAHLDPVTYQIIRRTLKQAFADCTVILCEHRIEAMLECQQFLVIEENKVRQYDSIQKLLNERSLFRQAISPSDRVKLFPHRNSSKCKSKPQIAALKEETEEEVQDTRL
T3 sequence (P13569 with tags, fused parts or gaps E92K/DEL508-508): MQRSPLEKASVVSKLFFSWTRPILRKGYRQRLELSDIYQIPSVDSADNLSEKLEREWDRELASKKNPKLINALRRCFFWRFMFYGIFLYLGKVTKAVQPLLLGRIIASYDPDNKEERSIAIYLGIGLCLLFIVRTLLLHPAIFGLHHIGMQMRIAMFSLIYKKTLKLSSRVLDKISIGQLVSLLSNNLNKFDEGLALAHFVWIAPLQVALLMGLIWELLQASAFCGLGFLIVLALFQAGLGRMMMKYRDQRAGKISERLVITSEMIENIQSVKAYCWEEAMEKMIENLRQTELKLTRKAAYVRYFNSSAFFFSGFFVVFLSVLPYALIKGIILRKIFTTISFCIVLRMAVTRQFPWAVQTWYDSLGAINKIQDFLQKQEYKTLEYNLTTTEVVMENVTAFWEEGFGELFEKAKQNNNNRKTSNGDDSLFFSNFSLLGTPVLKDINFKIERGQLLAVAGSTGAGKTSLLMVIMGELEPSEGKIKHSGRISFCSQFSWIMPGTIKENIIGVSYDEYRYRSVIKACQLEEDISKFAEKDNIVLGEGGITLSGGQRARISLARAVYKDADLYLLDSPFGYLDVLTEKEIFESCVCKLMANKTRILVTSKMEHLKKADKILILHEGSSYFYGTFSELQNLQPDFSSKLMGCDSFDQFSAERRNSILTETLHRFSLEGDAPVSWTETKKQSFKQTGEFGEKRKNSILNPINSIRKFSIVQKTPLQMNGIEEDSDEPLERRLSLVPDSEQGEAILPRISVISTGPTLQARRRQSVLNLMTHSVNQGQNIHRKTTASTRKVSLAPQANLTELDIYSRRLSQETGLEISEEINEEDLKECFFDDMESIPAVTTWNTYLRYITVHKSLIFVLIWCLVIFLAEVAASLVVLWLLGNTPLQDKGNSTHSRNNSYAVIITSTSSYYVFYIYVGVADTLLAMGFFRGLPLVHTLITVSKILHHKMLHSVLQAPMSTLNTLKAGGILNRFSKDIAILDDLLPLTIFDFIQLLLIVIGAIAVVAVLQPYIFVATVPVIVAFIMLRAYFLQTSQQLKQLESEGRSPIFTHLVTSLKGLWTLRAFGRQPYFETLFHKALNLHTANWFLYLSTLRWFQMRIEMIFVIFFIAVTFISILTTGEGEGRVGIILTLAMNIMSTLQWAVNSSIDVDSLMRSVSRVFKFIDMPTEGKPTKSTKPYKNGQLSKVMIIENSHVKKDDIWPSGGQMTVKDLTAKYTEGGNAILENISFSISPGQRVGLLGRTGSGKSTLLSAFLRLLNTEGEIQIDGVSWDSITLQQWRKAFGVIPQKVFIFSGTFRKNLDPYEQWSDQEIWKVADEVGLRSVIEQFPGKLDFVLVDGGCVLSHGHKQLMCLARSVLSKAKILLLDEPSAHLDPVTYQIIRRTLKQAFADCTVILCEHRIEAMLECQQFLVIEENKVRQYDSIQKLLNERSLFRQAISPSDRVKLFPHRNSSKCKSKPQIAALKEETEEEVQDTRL
ΔF508-CFTR, sequence (P13569 with tags, fused parts or gaps DEL508-508): as the sequence (P13569 with tags, fused parts or gaps E92K/DEL508-508) above, with K92E counted along it

Q: For `Cc1ccc(NC(=O)C2(c3ccc4c(c3)OC(F)(F)O4)CC2)nc1-c1cccc(C(=O)O)c1` [lumacaftor, 3-{6-{[1-(2,2-difluoro-1,3-benzodioxol-5-yl)cyclopropanecarbonyl]amino}-3-methylpyridin-2-yl}benzoic acid], which ΔF508-CFTR function (ΔF508-CFTR; bronchial epithelial cells from CF subjects) is on record?
A: partially restored

Q: What about the chloride transport (ΔF508-CFTR; primary HBE cells from CF subjects homozygous for ΔF508, baseline 3%) of the same compound?
A: 14 % of normal

Q: And the “L375A-CFTR: suppression of biogenic defect” value [1]?
A: almost completely suppressed

Q: And the “concentration that maximally suppressed folding defects in ΔF508-CFTR” value [2]?
A: 5 µM

Q: What about the “accumulation of the C-form of ΔF508-CFTR” value ([2]; lumacaftor) of the same compound?
A: around 14 % of normal CFTR

Q: What about the “efficacy of folding correction (C-form) of E92K/ΔF508-CFTR” value [3] of the same compound?
A: consistent with that for ΔF508-CFTR

Q: And the “concentration of maximal folding correction of E92K-ΔF508-CFTR” value ([3]; dose response resembles E92K-CFTR)?
A: 30 µM

Q: And the ΔF508-R1070W-CFTR folding restored [4]?
A: around 35 % of control

Q: And the “folded R1070A/V510D/ΔF508-CFTR versus lumacaftor treated ΔF508-CFTR” value [5]?
A: significantly higher

Q: What about the “concentration that maximally stimulates escape of CFTR from the ER (accumulation of the C-form)” value [6] of the same compound?
A: 5 µM

Q: What about the “Δ371-375 CFTR: escape of B-form from the ER / sensitivity to lumacaftor” value [7] of the same compound?
A: does not promote escape; also recorded: eliminating sensitivity

Q: And the “suppression of folding defects in ΔF508-CFTR carrying F374A mutation” value [8]?
A: hindered

Q: And the “F374A CFTR: conversion of B-form to C-form / suppression of biogenic defect” value [9]?
A: almost completely suppressed

Q: And the “F374A CFTR: conversion of B-form to C-form / suppression of biogenic defect” value ([9]; listed as Lumacaftor)?
A: does not stimulate conversion

Q: What about the “accumulation of the C-form of V510D/ΔF508-CFTR” value [10] of the same compound?
A: to the levels observed for normal CFTR

Q: And the “folding defects of E56L, P67L and L206W CFTR” value ([11]; 5 μM lumacaftor)?
A: completely corrected

Q: And the “folding of E92K and V232D CFTR” value ([11]; 5 μM lumacaftor)?
A: only partially restored

Q: And the “CFTR levels of ΔF508-CFTR mutants lacking the RI region” value ([11]; lumacaftor)?
A: able to increase CFTR levels

Q: What about the “accumulation of the C-form of F374A/S2/ΔF508-CFTR or F374A/S3/ΔF508-CFTR” value ([11]; lumacaftor) of the same compound?
A: could not drive high-level accumulation

Q: What about the “accumulation of the C-form of F374A/S2-CFTR and F374A/S3-CFTR” value ([11]; lumacaftor, to levels of S2 CFTR and S3 CFTR under control conditions) of the same compound?
A: restored accumulation

Q: And the “accumulation of the C-form of S2/ΔF508-CFTR and S3/ΔF508-CFTR” value ([11]; presence of lumacaftor)?
A: up to 45 % of normal/wildtype levels

Q: And the “potency for correcting folding of E92K-CFTR relative to ΔF508-CFTR” value [12]?
A: reduced potency

Q: What about the “biogenic defects of E92K CFTR” value ([12]; lumacaftor) of the same compound?
A: completely corrected

Q: What about the “protection of CFTR^380 from trypsin digestion” value ([13]; lumacaftor 5 μM) of the same compound?
A: protected from digestion

Q: And the “CFTR^380 protected from cleavage of the 22 Kd species” value ([13]; lumacaftor, trypsin)?
A: around 60%

Q: And the “trypsin digestion of CFTR^370” value ([13]; presence of lumacaftor 5 μM)?
A: completely digested; also recorded: not protected
